Legend:
Conditions in all cases: 0.1 µM; binder
ICK = ICK (Homo sapiens, UniProt Q9UPZ9)
SYK = SYK (Homo sapiens, UniProt P43405)
MINK = MINK (Homo sapiens, UniProt Q8N4C8)
AKT1 = AKT1 (Homo sapiens, UniProt P31749)
DSTYK = DSTYK (Homo sapiens, UniProt Q6XUX3)
TRKB = TRKB (Homo sapiens, UniProt Q16620)
VEGFR2 = VEGFR2 (Homo sapiens, UniProt P35968)
YSK4 = YSK4 (Homo sapiens, UniProt Q56UN5)
MARK3 = MARK3 (Homo sapiens, UniProt P27448)
CLK3 = CLK3 (Homo sapiens, UniProt P49761)
MRCKA = MRCKA (Homo sapiens, UniProt Q5VT25)
CDC2L2 = CDC2L2 (Homo sapiens, UniProt Q9UQ88)
PKMYT1 = PKMYT1 (Homo sapiens, UniProt Q99640)
TSSK1B = TSSK1B (Homo sapiens, UniProt Q9BXA7)
PIP4K2B = PIP4K2B (Homo sapiens, UniProt P78356)
ACVR1 = ACVR1 (Homo sapiens, UniProt Q04771)
LIMK2 = LIMK2 (Homo sapiens, UniProt P53671)
MEK1 = MEK1 (Homo sapiens, UniProt Q02750)
PIK3CB = PIK3CB (Homo sapiens, UniProt P42338)
p38-gamma = p38-gamma (Homo sapiens, UniProt P53778)
PIK3CA(H1047L) = PIK3CA(H1047L) (Homo sapiens, UniProt P42336, H1047L)
MAPKAPK2 = MAPKAPK2 (Homo sapiens, UniProt P49137)
RIOK3 = RIOK3 (Homo sapiens, UniProt O14730)
ACVRL1 = ACVRL1 (Homo sapiens, UniProt P37023)
INSRR = INSRR (Homo sapiens, UniProt P14616)
EPHA7 = EPHA7 (Homo sapiens, UniProt Q15375)
PLK4 = PLK4 (Homo sapiens, UniProt O00444)
PRKCE = PRKCE (Homo sapiens, UniProt Q02156)
ASK2 = ASK2 (Homo sapiens, UniProt O95382)
GRK7 = GRK7 (Homo sapiens, UniProt Q8WTQ7)
EGFR(T790M) = EGFR(T790M) (Homo sapiens, UniProt P00533, T790M)

PKMYT1, sequence (Q99640 whole entry): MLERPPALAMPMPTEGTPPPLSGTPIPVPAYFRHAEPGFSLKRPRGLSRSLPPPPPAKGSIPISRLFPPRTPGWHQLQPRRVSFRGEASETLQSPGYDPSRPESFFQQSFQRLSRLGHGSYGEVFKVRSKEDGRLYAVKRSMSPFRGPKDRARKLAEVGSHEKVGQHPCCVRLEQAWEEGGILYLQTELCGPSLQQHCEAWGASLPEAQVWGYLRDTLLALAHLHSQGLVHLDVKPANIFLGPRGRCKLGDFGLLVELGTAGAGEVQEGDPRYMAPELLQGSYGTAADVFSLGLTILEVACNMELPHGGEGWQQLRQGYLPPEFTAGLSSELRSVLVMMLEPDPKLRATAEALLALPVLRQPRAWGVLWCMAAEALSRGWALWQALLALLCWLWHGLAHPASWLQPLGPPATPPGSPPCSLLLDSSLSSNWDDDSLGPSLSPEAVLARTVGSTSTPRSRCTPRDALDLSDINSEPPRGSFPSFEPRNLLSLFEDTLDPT
LIMK2, sequence (P53671 whole entry): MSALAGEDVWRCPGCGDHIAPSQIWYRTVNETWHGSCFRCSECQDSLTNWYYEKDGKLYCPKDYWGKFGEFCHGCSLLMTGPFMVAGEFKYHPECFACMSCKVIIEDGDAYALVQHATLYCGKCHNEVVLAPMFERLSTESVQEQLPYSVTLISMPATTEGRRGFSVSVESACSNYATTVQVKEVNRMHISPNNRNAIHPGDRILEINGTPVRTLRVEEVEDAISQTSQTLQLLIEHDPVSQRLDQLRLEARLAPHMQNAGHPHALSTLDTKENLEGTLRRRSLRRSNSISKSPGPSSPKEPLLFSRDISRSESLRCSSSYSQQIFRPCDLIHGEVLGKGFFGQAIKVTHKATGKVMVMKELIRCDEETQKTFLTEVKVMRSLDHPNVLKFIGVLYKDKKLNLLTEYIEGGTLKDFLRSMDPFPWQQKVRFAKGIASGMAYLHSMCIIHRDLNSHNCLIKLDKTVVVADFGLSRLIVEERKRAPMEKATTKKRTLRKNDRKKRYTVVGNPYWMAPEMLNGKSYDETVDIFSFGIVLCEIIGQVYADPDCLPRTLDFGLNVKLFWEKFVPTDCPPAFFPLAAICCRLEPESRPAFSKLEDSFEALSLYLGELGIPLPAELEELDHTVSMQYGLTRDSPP
CLK3, sequence (P49761 whole entry): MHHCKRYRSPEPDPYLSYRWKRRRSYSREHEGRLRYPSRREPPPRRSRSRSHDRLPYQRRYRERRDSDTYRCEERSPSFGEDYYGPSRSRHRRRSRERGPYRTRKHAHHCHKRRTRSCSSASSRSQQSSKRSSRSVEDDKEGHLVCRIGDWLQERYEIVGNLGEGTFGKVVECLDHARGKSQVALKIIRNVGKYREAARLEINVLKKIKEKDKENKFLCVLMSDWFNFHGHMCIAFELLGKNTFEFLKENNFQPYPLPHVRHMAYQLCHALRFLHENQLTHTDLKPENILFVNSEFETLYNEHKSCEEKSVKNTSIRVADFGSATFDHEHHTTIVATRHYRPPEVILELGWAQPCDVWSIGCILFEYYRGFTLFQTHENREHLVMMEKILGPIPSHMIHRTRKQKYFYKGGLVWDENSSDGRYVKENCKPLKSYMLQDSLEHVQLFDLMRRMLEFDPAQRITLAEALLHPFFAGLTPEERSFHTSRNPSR
p38-gamma, sequence (P53778 whole entry): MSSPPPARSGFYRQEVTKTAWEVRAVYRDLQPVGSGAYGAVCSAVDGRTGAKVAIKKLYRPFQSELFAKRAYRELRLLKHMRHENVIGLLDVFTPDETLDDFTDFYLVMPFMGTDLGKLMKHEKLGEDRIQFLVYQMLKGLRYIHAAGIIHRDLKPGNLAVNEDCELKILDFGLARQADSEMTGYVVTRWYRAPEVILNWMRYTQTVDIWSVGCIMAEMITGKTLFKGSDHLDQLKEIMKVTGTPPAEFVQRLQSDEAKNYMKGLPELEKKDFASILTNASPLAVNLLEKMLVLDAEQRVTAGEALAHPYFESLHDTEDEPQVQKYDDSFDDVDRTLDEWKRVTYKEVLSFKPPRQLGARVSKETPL
ICK, sequence (Q9UPZ9 whole entry): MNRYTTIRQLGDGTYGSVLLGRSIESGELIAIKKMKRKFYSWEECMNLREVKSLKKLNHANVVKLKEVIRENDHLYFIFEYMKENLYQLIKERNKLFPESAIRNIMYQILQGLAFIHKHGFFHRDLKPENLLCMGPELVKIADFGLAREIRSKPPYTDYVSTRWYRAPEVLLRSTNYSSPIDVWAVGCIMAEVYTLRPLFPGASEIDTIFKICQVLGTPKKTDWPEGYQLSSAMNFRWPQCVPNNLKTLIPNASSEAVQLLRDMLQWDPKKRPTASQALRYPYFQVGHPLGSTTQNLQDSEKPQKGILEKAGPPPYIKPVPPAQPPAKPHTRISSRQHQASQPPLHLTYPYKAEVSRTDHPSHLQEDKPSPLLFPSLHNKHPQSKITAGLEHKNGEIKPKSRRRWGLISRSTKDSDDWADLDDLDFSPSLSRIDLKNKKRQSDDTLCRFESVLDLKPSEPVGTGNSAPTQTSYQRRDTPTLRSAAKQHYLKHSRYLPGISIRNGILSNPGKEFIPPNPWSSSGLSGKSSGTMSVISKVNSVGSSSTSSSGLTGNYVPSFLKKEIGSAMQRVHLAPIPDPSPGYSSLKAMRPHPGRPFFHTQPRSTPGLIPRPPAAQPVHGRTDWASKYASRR
PIK3CB, sequence (P42338 whole entry): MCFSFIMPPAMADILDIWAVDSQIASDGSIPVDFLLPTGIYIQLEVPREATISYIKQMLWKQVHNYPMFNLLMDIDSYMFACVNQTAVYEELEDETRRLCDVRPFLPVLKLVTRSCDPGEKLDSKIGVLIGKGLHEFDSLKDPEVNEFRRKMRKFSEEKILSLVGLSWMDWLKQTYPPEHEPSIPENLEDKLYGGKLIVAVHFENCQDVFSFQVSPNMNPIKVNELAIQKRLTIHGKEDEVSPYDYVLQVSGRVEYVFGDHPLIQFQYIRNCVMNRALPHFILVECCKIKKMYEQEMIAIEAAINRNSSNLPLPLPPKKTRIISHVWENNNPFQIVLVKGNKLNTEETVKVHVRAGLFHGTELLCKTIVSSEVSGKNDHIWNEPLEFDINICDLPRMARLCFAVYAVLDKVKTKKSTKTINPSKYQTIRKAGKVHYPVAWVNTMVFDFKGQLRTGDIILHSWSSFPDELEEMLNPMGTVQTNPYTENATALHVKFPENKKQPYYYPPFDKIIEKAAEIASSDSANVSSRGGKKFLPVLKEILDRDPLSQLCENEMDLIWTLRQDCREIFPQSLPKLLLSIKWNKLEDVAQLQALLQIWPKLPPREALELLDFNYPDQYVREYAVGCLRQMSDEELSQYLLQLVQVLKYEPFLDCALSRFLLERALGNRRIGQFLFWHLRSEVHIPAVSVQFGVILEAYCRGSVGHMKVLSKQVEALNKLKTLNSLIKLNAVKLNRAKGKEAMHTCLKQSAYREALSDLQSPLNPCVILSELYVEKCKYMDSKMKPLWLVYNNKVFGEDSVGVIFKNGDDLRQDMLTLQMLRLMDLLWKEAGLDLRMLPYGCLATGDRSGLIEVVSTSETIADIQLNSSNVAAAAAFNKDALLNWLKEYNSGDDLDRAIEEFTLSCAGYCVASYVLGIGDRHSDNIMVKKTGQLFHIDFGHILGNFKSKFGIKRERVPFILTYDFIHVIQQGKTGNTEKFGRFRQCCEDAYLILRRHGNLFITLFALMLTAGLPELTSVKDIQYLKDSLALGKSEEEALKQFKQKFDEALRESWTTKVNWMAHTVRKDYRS
ACVR1, sequence (Q04771 whole entry): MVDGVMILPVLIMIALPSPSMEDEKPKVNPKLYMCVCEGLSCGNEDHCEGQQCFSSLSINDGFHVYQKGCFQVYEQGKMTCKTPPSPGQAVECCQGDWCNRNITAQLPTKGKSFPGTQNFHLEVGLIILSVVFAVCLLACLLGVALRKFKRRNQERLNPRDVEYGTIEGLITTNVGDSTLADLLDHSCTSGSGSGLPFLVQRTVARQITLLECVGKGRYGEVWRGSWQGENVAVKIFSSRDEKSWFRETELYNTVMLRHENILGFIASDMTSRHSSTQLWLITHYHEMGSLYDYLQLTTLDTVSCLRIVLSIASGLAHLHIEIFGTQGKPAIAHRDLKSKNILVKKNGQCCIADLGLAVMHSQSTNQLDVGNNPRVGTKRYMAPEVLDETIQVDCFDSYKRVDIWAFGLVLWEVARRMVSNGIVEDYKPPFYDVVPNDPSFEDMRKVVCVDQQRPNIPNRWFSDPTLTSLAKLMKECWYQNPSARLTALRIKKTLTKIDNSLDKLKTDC
ACVRL1, sequence (P37023 whole entry): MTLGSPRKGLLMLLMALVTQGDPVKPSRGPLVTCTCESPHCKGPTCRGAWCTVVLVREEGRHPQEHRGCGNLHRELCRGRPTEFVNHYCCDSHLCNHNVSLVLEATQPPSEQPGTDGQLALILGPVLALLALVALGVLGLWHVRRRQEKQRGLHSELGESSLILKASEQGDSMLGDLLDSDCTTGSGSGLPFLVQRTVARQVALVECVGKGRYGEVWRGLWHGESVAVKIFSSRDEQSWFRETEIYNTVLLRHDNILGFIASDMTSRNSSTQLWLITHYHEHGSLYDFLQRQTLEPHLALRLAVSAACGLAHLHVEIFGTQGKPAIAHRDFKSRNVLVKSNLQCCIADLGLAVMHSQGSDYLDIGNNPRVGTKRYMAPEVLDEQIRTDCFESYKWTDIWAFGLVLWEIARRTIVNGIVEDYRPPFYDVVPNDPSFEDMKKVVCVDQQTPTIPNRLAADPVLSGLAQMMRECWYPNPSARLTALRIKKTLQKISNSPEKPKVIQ

CNc1ncc2cc(-c3ccc(-c4cccc(C)n4)cc3Cl)c(=O)n(C[C@H]3OC[C@H](N)CO3)c2n1 [compound 6, G-5555]
Percent Control (ICK): 100% | Percent Control (SYK): 100% | Percent Control (MINK): 77% | Percent Control (AKT1): 100% | Percent Control (DSTYK): 90% | Percent Control (TRKB): 100% | Percent Control (VEGFR2): 98% | Percent Control (YSK4): 70% | Percent Control (MARK3): 45% | Percent Control (CLK3): 100% | Percent Control (MRCKA): 100% | Percent Control (CDC2L2): 100% | Percent Control (PKMYT1): 100% | Percent Control (TSSK1B): 98% | Percent Control (PIP4K2B): 68% | Percent Control (ACVR1): 97% | Percent Control (LIMK2): 100% | Percent Control (MEK1): 24% | Percent Control (PIK3CB): 100% | Percent Control (p38-gamma): 100% | Percent Control (PIK3CA(H1047L)): 100% | Percent Control (MAPKAPK2): 100% | Percent Control (RIOK3): 85% | Percent Control (ACVRL1): 100% | Percent Control (INSRR): 100% | Percent Control (EPHA7): 100% | Percent Control (PLK4): 84% | Percent Control (PRKCE): 95% | Percent Control (ASK2): 100% | Percent Control (GRK7): 89% | Percent Control (EGFR(T790M)): 100%

From article doi:10.1101/2021.04.08.439011v1 (biorxiv, 2021)
